Experimental data taken from paper PMC4128710 (Biochemical pharmacology, 2014).

Assays:
A1 and A3 ARs = experiment: Inhibition of forskolin-stimulated cAMP accumulation
A2BAR [1] = molecular target: T1, A2BAR (Homo sapiens, UniProt P29275); experiment: ERK1/2 phosphorylation in HEK293 cells overexpressing the A2BAR; details: HEK293 cells overexpressing A2BAR
T1 sequence (P29275 1-332): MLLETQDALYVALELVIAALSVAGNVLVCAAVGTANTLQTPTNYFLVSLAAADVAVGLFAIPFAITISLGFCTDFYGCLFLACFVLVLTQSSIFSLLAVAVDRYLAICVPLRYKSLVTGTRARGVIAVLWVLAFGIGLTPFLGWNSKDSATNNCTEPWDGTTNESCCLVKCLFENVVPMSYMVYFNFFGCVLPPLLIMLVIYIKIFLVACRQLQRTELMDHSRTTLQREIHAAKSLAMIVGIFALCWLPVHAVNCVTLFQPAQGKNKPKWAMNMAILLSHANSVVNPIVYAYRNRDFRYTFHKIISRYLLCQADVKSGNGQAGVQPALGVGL

A2BAR [2] = molecular target: T1, A2BAR; experiment: cAMP accumulation in HEK293 cells overexpressing the A2BAR; details: HEK293 cells overexpressing A2BAR
mouse A2BAR = molecular target: T2, mouse A2BAR (Mus musculus, UniProt Q60614); experiment: β-Arrestin2 translocation in PathHunter CHO cells; details: PathHunter CHO cells, mouse A2BAR
T2 sequence (Q60614 1-332): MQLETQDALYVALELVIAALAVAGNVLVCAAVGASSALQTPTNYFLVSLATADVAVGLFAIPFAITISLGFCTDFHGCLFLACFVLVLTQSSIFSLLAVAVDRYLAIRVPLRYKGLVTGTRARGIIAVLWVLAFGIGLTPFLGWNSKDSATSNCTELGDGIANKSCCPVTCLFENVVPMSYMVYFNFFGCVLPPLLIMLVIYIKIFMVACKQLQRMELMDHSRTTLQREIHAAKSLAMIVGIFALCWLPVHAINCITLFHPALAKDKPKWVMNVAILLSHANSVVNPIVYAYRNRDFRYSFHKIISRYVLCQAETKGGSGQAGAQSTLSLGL

A2BAR [3] = molecular target: T1, A2BAR; experiment: cAMP accumulation in T24 cells endogenously expressing the A2BAR
A2BAR [4] = molecular target: T1, A2BAR; experiment: ERK1/2 phosphorylation in HEK293 cells; details: HEK293 cells, endogenous A2BAR
A2BAR [5] = molecular target: T1, A2BAR; experiment: ERK1/2 phosphorylation in T24 cells; details: T24 cells
A2BAR [6] = molecular target: T1, A2BAR; experiment: Intracellular calcium mobilization in HEK293 cells; details: HEK293 cells, endogenous A2BAR
A2BAR [7] = molecular target: T1, A2BAR; experiment: Intracellular calcium mobilization in HEK293 cells overexpressing the A2BAR; details: HEK293 cells overexpressing A2BAR
A2BAR [8] = molecular target: T1, A2BAR; experiment: cAMP accumulation in HEK293 cells endogenously expressing the A2BAR; details: HEK293 cells, endogenous A2BAR
A2BAR [9] = molecular target: T1, A2BAR; experiment: Intracellular calcium mobilization in T24 cells; details: T24 cells

OC[C@H]1O[C@@H](n2cnc3c(NC4CCCC4)ncnc32)[C@H](O)[C@@H]1O [CPA, N^6-cyclopentyladenosine]
inhibition of forskolin-stimulated cAMP accumulation (A1 and A3 ARs): inactive

Nc1ncnc2c1ncn2[C@@H]1O[C@H](C(=O)NC2CC2)[C@@H](O)[C@H]1O [CPCA, adenosine-5′-N-cyclopropyluronamide]
Max effect ERK1/2 (% of effect of NECA) (A2BAR [1]): 100 ±6% | EC50 (A2BAR [1]; read-out: EC50 ERK1/2): 1.86 ± 0.24 µM | Max effect cAMP (% of effect of NECA) (A2BAR [2]): 98.9 ±6.6% | EC50 (A2BAR [2]; read-out: EC50 cAMP): 0.0328 ± 0.0042 µM | Max effect β-arrestin (% of effect of NECA) (mouse A2BAR): 109 ±9% | EC50 (mouse A2BAR; read-out: EC50 β-arrestin): 5.06 ± 1.41 µM | Max effect cAMP (% of effect of NECA) (A2BAR [3]; T24 cells, NECA = 100%): 98.5 ±1.9% | EC50 (A2BAR [3]; read-out: EC50 cAMP, T24 cells): 0.177 ± 0.067 µM | Max effect ERK1/2 (% of effect of NECA) (A2BAR [4]): 99.3 ±2.4% | EC50 (A2BAR [4]; read-out: EC50 ERK1/2): 1.03 ± 0.23 µM | ERK1/2 stimulation relative to basal value (A2BAR [5]): ≤ 2 fold | Max effect ERK1/2 (% of effect of NECA) (A2BAR [5]): 101 ±8% | EC50 (A2BAR [5]; read-out: EC50 ERK1/2): 0.369 ± 0.032 µM | Max effect Calcium (% of effect of NECA) (A2BAR [6]): 98.7 ±6.6% | EC50 (A2BAR [6]; read-out: EC50 Calcium): 2.62 ± 0.46 µM | Max effect Calcium (% of effect of NECA) (A2BAR [7]): 102 ±4% | EC50 (A2BAR [7]; read-out: EC50 Calcium): 1.49 ± 0.36 µM | Max effect cAMP (% of effect of NECA) (A2BAR [8]): 102 ±9% | EC50 (A2BAR [8]; read-out: EC50 cAMP): 0.267 ± 0.032 µM | Max effect Calcium (% of effect of NECA) (A2BAR [9]): 101 ±7% | EC50 (A2BAR [9]; read-out: EC50 Calcium): 1.93 ± 0.68 µM

Nc1nc(Nc2ccccc2)nc2c1ncn2[C@@H]1O[C@H](CO)[C@@H](O)[C@H]1O [CV1808, 2-phenylaminoadenosine]
EC50 (A2BAR [3]): 9.1 ± 5.8 µM

CNC(=O)[C@H]1O[C@@H](n2cnc3c(NCc4cccc(I)c4)nc(Cl)nc32)[C@H](O)[C@@H]1O [Cl-IB-MECA]
inhibition of forskolin-stimulated cAMP accumulation (A1 and A3 ARs): inactive

N#Cc1c(N)nc(SCc2ncc[nH]2)c(C#N)c1-c1ccccc1 [LUF5833, 2-aminophenyl-6-(1H-imidazol-2-ylmethylsulfanyl)pyridine-3,5-dicarbonitrile]
Max effect β-arrestin (% of effect of NECA) (mouse A2BAR): 9.7 ±0.6%
